Results reported in patent US9107408B2, “Plant disease controlling composition and method for controlling plant disease” (SUMITOMO CHEMICAL COMPANY, LIMITED, priority 2010, dated 2015).
Where two headings read alike, the source gives them in different places.

System: gray mold fungus (Botrytis cinerea)
Assay: Cucumber leaf disk preventive test against gray mold fungus
Format: in vivo
Details: for pest or weed control at 0.5 ppm / pest or weed control at 5 ppm: Botrytis cinerea, foliar, 96 h, read-out: preventive value (%)
Experimental: True leaf of cucumber is punched out with cork borer to 13 mm in diameter to prepare a leaf disk. In 24 well microwell plate that is dispensed with 1 ml 0.8% water agar, the leaf disk is placed such that the upper side of the leaf is in an upward direction. Thereto is added 20 micro liter a testing solution prepared by mixing a dimethyl sulfoxide solution of the present compound (racemate) and a dimethyl sulfoxide solution of tebuconazole to a predetermined concentration to treat the leaf disk.
After confirming that the testing medical solution is dried, conidium of gray mold fungus (Botrytis cinerea) is suspended into potato dextrose broth (DIFCO) in a density of about 10^5 conidium/mL and is then subjected to a spray inoculation. After leaving to stand the leaf disk in a growth chamber set up at 15° C. for four days, an onset area on the leaf is measured and then calculated an onset area rate (hereinafter, referred to as an onset area rate of treated group).
The same operation is carried out with 20 micro liter water instead of 20 micro liter a testing medicine solution to calculate an onset area rate (hereinafter, referred to an onset area rate of non-treated group).
A preventive value is calculated from the above onset area rate of treated group and the onset area rate of non-treated group by the following equation: Preventive value (%)=100×(A−B)/A
A: an onset area rate of treated group
B: an onset area rate of non-treated group
The same operations as described in Test Example 1 are carried out with triadimenol, bitertanol, oxpoconazole fumarate, cyazofamid, pefurazoate, triflumizole, or hymexazol instead of tebuconazole, so as to calculate respective preventive values.
Also for comparison, the same operations as described in Test Example 1 are carried out with the exception that the testing medicine solution is substituted with a predetermined concentration of each dimethyl sulfoxide solution of the present compound (racemate), triadimenol, bitertanol, oxpoconazole fumarate, cyazofamid, pefurazoate, triflumizole, or hymexazol, so as to calculate respective preventive values.
For comparison, the same operations as described in Test Example 1 are carried out with the exception that the testing medicine solution is substituted with a predetermined concentration of a dimethyl sulfoxide solution of tebuconazole, so as to calculate a preventive value.

[1] = azole compound alone 0.5 ppm, cucumber leaf disk, 15° C., four days
[2] = azole compound alone 5.0 ppm, cucumber leaf disk, 15° C., four days

| Compound | pest or weed control at 0.5 ppm [1] | pest or weed control at 5 ppm [2] | also measured |
| --- | --- | --- | --- |
| Cc1cc(O)no1 [hymexazol] | 5% | 10% | – |
| Cc1ccc(-c2c(Cl)nc(C#N)n2S(=O)(=O)N(C)C)cc1 [cyazofamid] | 10% | 15% | – |
| CC(C)(C)C(O)(CCc1ccc(Cl)cc1)Cn1cncn1 (stereo not shown) [tebuconazole] | 40% | 54% | – |
| CCCOC/C(=N\c1ccc(Cl)cc1C(F)(F)F)n1ccnc1 [triflumizole] | 44% | 57% | – |
| CC(C)(C)C(O)C(Oc1ccc(Cl)cc1)n1cncn1 (stereo not shown) [triadimenol] | 45% | 58% | – |
| C=CCCCOC(=O)C(CC)N(Cc1ccco1)C(=O)n1ccnc1 (stereo not shown) [pefurazoate] | – | – | pest or weed control at 0.5 ppm: 44%; pest or weed control at 5 ppm: 53% |
| CC(C)(C)C(O)C(Oc1ccc(-c2ccccc2)cc1)n1cncn1 (stereo not shown) [bitertanol] | 45% | 56% | – |
| CC1(C)COC(C)(CCCc2ccc(Cl)cc2)N1C(=O)n1ccnc1.CC1(C)COC(C)(CCCc2ccc(Cl)cc2)N1C(=O)n1ccnc1.O=C(O)/C=C/C(=O)O (stereo not shown) [oxpoconazole fumarate] | – | – | preventive value (%) [1]: 49%; preventive value (%) [2]: 59% |
